In brackets after ≈: the same amount, converted by molar mass.
These compounds were tested on Ramos (assay: Cytotoxicity against human Ramos B cells after 72 hrs by MTT assay).
Assay type: functional, cell-based

In order of rising IC50:
1. CCCCCCCCCC(=O)O[C@@]12C[C@@H](C)[C@]3(O)[C@@H](C=C(CO)C[C@@]4(O)C(=O)C(C)=C[C@@H]34)[C@@H]1C2(C)C  0.0051 µg/mL (≈ 0.0101 µM)
2. CC(=O)OCC1=C2[C@H]3O[C@]34CC[C@@H]3C(C)(C)CCC[C@@]3(C)[C@@H]4[C@H]3O[C@@]23OC1=O [17-ACETOXYJOLKINOLIDE B]  0.023 µg/mL (≈ 0.0592 µM)
3. CC(=O)O[C@@]12C[C@@H](C)[C@@]3(O)[C@@H](C=C(CO)C[C@]4(O)C(=O)C(C)=C[C@@H]34)[C@@H]1C2(C)C [PROSTRATIN]  0.056 µg/mL (≈ 0.143 µM)
